# Experimental data from ChEMBL document CHEMBL3817844 (Medchemcomm, 2016).
# Columns and labels:
# [1] = Inhibition of Schistosoma mansoni SERT
# Schistosoma mansoni [2] = test: Antischistosomal activity against adult female Schistosoma mansoni BH derived from infected Swiss mouse assessed as reduction in motility measured after 24 hrs by automated image-based analysis; format: functional, organism-based
# Schistosoma mansoni [3] = test: Antischistosomal activity against newly transformed Schistosoma mansoni BH assessed as decrease in viability after 72 hrs by resazurin-based spectrophotometric assay; format: functional, organism-based
# Schistosoma mansoni [4] = test: Antischistosomal activity against adult female Schistosoma mansoni BH derived from infected Swiss mouse assessed as reduction in motility measured after 48 hrs by automated image-based analysis; format: functional, organism-based
# Schistosoma mansoni [5] = test: Antischistosomal activity against adult male Schistosoma mansoni BH derived from infected Swiss mouse assessed as reduction in motility measured immediately after treatment by automated image-based analysis; format: functional, organism-based
# Schistosoma mansoni [6] = test: Antischistosomal activity against adult female Schistosoma mansoni BH derived from infected Swiss mouse assessed as reduction in motility measured immediately after treatment by automated image-based analysis; format: functional, organism-based
# Schistosoma mansoni [7] = test: Antischistosomal activity against adult male Schistosoma mansoni BH derived from infected Swiss mouse assessed as reduction in motility measured after 48 hrs by automated image-based analysis; format: functional, organism-based
# Schistosoma mansoni [8] = test: Antischistosomal activity against adult male Schistosoma mansoni BH derived from infected Swiss mouse assessed as reduction in motility measured after 24 hrs by automated image-based analysis; format: functional, organism-based
# Schistosoma mansoni [9] = test: Antischistosomal activity against adult female Schistosoma mansoni BH derived from infected Swiss mouse assessed as reduction in motility measured after 72 hrs by automated image-based analysis; format: functional, organism-based
# Schistosoma mansoni [10] = test: Antischistosomal activity against adult male Schistosoma mansoni BH derived from infected Swiss mouse assessed as reduction in motility measured after 72 hrs by automated image-based analysis; format: functional, organism-based
SMILES,IC50 [1] [nM],EC50 (Schistosoma mansoni [2]) [nM],IC50 (Schistosoma mansoni [3]) [nM],EC50 (Schistosoma mansoni [4]) [nM],EC50 (Schistosoma mansoni [5]) [nM],EC50 (Schistosoma mansoni [6]) [nM],EC50 (Schistosoma mansoni [7]) [nM],EC50 (Schistosoma mansoni [8]) [nM],EC50 (Schistosoma mansoni [9]) [nM],EC50 (Schistosoma mansoni [10]) [nM]
Fc1ccc([C@@H]2CCNC[C@H]2COc2ccc3c(c2)OCO3)cc1 [PAROXETINE],90,9900,2500,11500,23500,17400,3800,5100,11900,2700
O=C(C1CCCCC1)N1CC(=O)N2CCc3ccccc3C2C1 (stereo unspecified) [PRAZIQUANTEL],–,300,–,–,110,130,130,120,660,–
